Data as given in ChEMBL document CHEMBL1201862, “PubChem BioAssay data set” (2004).
Calls of active or inactive are those of the source.

How the values were obtained:
[1] = Counterscreen for AddAB inhibitors: absorbance-based bacterial cell-based high throughput dose response assay for inhibitors of bacterial viability. [Related pubchem assays (depositor defined):AID435030, AID449728, AID449731, AID488942, AID488955, AID488956]; format: functional
[2] = target: 26S proteasome non-ATPase regulatory subunit 14 (Homo sapiens, UniProt O00487); assay: inhibition of proteasome subunit RPN11 – biochemical, fluorescence polarization, uHTS hits, confirmation (AID 602368); format: functional
Chain of 26S proteasome non-ATPase regulatory subunit 14 (O00487 whole entry): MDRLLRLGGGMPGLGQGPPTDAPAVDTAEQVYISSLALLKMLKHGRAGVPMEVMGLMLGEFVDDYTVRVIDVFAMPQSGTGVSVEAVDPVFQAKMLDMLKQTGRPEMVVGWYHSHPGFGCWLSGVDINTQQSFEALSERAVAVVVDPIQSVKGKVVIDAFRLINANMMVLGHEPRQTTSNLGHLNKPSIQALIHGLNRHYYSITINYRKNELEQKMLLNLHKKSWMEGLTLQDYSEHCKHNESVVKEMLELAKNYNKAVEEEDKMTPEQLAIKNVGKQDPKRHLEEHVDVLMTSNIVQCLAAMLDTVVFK

[3] = target: 72 kDa type IV collagenase (Homo sapiens, UniProt P08253); assay: Dose Response validation of uHTS RPN11 inhibitor hits using a MMP-2 Fluorescence assay.; format: functional
Chain of 72 kDa type IV collagenase (P08253 whole entry): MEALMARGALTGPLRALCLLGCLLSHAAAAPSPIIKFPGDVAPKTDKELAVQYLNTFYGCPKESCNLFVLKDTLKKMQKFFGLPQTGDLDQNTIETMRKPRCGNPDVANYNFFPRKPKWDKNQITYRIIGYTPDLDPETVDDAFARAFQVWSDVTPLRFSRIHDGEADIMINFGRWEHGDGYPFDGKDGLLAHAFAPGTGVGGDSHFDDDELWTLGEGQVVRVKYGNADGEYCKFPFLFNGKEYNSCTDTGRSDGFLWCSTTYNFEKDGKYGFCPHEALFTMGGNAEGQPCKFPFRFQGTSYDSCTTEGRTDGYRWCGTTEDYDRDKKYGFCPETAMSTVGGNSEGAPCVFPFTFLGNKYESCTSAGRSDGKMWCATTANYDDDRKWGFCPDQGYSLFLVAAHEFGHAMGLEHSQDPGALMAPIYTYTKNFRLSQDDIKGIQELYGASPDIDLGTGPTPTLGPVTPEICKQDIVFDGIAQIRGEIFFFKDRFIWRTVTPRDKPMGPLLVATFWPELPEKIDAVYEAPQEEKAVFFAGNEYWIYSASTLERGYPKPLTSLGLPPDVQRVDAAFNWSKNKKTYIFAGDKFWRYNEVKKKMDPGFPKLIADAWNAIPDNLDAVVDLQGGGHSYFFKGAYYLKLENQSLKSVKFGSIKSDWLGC

Prothrombin = Prothrombin (Bos taurus, UniProt P00735); assay: thrombin inhibition, dose response, biochemical, fluorescence polarization, uHTS hits (AID 602369); format: functional
[4] = target: T1, Rac GTPase-activating protein 1 (Homo sapiens, UniProt Q9H0H5); assay: MgcRacGAP GTPase-activating activity inhibitors, confirmation, biochemical, ADP Hunter fluorescence, primary and confirmatory (AID 624330); format: functional
T1 sequence (Q9H0H5 whole entry): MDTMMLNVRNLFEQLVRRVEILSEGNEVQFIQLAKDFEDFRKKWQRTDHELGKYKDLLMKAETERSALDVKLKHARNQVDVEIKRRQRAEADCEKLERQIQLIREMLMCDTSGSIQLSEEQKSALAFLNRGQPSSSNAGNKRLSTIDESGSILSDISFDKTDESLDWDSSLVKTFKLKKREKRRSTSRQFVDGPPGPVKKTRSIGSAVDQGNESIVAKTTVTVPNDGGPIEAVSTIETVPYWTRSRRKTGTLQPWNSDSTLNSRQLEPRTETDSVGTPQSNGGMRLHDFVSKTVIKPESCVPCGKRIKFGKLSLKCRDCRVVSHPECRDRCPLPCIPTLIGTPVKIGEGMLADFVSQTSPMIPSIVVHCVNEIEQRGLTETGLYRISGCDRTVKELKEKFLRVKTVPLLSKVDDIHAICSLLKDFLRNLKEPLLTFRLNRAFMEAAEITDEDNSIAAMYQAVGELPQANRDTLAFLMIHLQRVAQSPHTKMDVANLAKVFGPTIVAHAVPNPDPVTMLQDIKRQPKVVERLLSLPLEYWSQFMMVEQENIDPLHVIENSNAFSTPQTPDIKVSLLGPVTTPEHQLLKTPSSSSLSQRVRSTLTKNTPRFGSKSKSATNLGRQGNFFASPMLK

[5] = target: T2, Sentrin-specific protease 6 (Homo sapiens, UniProt Q9GZR1); format: functional;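 further: Luminescence-based dose-response confirmatory assay of SENP6 inhibition, following up an ultra-high-throughput screen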
T2 sequence (Q9GZR1 whole entry): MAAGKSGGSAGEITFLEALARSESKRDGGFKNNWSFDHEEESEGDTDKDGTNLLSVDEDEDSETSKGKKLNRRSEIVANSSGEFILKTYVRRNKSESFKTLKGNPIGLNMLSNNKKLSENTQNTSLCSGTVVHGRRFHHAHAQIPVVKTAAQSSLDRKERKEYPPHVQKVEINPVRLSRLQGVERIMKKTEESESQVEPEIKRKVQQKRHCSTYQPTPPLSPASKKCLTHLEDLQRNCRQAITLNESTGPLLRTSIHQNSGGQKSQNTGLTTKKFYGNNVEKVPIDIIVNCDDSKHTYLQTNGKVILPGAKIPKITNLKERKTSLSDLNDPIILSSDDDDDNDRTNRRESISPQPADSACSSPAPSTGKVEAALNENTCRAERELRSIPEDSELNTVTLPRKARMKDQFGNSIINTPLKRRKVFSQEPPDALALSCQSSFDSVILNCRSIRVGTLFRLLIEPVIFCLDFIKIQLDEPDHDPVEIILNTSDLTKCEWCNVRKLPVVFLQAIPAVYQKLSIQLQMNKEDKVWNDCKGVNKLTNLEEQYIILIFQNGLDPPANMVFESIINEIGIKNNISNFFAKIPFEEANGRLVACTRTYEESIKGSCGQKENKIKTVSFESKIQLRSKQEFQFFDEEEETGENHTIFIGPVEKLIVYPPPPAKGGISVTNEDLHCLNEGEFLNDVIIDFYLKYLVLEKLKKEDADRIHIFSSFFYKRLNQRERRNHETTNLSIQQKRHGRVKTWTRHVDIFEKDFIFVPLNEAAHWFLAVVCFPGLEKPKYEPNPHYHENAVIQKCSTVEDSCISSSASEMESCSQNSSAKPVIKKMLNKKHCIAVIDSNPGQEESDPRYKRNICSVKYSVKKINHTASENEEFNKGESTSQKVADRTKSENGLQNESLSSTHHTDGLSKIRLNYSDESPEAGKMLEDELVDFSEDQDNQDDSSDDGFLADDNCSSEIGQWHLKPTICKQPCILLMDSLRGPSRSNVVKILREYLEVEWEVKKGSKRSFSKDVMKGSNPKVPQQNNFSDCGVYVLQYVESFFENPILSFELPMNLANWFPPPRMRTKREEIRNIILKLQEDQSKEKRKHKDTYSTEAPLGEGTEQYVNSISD

[6] = target: Dual specificity tyrosine-phosphorylation-regulated kinase 1A (Rattus norvegicus, UniProt Q63470); format: biochemical, Homo sapiens
[7] = Artemis endonuclease inhibitor potency, dose response, biochemical, fluorescence intensity (AID 720701); format: functional;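 further: Artemis endonuclease enzyme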

IC50 [5]	AC50 [6]	IC50 [7]	SMILES	IC50 [1]	IC50 [2]	IC50 [3]	IC50 (Prothrombin)	IC50 [4]
–	–	–	O=[N+]([O-])c1ccc(N/N=C/c2ccc[nH]2)cc1	> 119 µM (inactive)	8.96 µM (active)	70.3 µM (active)	9.84 µM (active)	44.5 µM (active)
6.06 µM (active)	28.1 µM (active)	18.3 µM (active)	CC(=O)N(/N=C1\Sc2ccccc2C1=O)c1cccc(C)c1	–	–	–	–	–
